Data as given in patent US7186732B2, “Non-imidazole aryloxyalkylamines” (Ortho-McNeil Pharmaceutical, Inc., priority 2000, dated 2007).
Counter-ions that a name gives are not always drawn.

target: T1, human histamine H3 receptor (Homo sapiens, UniProt Q9Y5N1); test: [3H]-N-methylhistamine binding to membranes of histamine H3 receptor-expressing SK-N-MC cells; details: 0.8 nM [3H]-N-methylhistamine, 45 min at 25° C., SK-N-MC cell membranes; Ki=(IC50)/(1+([L]/(Kd)); read-out: Ki
T1 construct: expressed in transfected cells; membranes prepared from cell pellets
Method: Thus in the present invention receptor binding was determined using the human histamine H3 receptor (See Lovenberg et al Mol. Pharmacol. 1999, 1107). Screening using the human receptor is particularly important for the identification of new therapies for the treatment of human disease. Conventional binding assays for example are determined using rat synaptosomes (Garbarg et al J. Pharmacol. Exp. Ther. 1992, 263, 304), rat cortical membranes (West et al Mol. Pharmacol. 1990, 610), and guinea pig brain (Korte et al Biochem. Biophys. Res. Commun. 1990, 978).
Transfection of Cells with Human Histamine Receptor
A 10 cm tissue culture dish with a confluent monolayer of SK-N-MC cells was split two days prior to transfection. Using sterile technique the media was removed and the cells were detached from the dish by the addition of trypsin. One fifth of the cells were then placed onto a new 10 cm dish. Cells were grown in a 37° C. incubator with 5% CO2 in Minimal Essential Media Eagle with 10% Fetal Bovine Serum. After two days cells were approximately 80% confluent. These were removed from the dish with trypsin and pelleted in a clinical centrifuge. The pellet was then re-suspended in 400 μL complete media and transferred to an electroporation cuvette with a 0.4 cm gap between the electrodes (Bio-Rad #165–2088). One microgram of supercoiled H3 receptor cDNA was added to the cells and mixed. The voltage for the electroporation was set at 0.25 kV, the capacitance was set at 960 μF. After electroporation the cells were diluted into 10 mL complete media and plated onto four 10 cm dishes. Because of the variability in the efficiency of electroporation, four different concentrations of cells were plated. The ratios used were; 1:20, 1:10, 1:5, with the remainder of the cells being added to the fourth dish. The cells were allowed to recover for 24 hours before adding the selection media (complete media with 600 μg/mL G418). After 10 days dishes were analyzed for surviving colonies of cells. Dishes with well isolated colonies were used. Cells from individual colonies were isolated and tested. SK-N-MC cells were used because they give efficient coupling for inhibition of adenylate cyclase. The clones that gave the most robust inhibition of adenylate cyclase in response to histamine were used for further study.
[^3H]-N-methylhistamine Binding
Cell pellets from histamine H3 receptor-expressing SK-N-MC cells were homogenized in 20 mM TrisHCI/0.5 mM EDTA. Supernatants from a 800 g spin were collected, recentrifuged at 30,000 g for 30 minutes. Pellets were re-homogenized in 50 mM Tris/5 mM EDTA (pH 7.4). Membranes were incubated with 0.8 nM [^3H]-N-methylhistamine plus/minus test compounds for 45 min at 25° C. and harvested by rapid filtration over GF/C glass fiber filters (pretreated with 0.3% polyethylenimine) followed by four washes with ice cold buffer. Filters were dried, added to 4 mL scintillation cocktail and then counted on a liquid scintillation counter. Non-specific binding was defined with 10 μM histamine. The pKi values were calculated based on a Kd of 800 pM and a ligand concentration ([L]) of 800 pM according to the formula: Ki=(IC50)/(1+([L]/(Kd))

T1 sequence (Q9Y5N1 whole entry): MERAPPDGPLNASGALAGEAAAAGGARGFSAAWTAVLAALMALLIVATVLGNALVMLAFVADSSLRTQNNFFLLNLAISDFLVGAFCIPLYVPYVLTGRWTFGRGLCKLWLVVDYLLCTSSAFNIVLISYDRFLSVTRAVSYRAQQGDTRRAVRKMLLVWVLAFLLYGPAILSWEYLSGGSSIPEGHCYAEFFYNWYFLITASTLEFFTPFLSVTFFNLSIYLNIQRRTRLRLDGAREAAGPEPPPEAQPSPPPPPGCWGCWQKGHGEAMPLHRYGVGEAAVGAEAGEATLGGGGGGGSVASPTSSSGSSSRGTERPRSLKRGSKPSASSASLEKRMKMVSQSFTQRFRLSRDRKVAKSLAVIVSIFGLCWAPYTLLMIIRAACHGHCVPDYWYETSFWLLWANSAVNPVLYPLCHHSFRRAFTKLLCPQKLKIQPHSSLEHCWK

Ki [nM]	Structure (SMILES)
2	CN(C)Cc1ccc(OCCCN2CCCCC2)cc1 [Example 59, Dimethyl-[4-(3-piperidin-1-yl-propoxy)-benzyl]-amine]
0.7	c1ccc2c(c1)CCN(Cc1ccc(OCCCN3CCCCC3)cc1)C2 [Example 36, 2-[4-(3-Piperidin-1-yl-propoxy)-benzyl]-1,2,3,4-tetrahydro-isoquinoline]
0.5	CN(Cc1ccccc1)C1CCN(Cc2ccc(OCCCN3CCCCC3)cc2)CC1 [Example 43, Benzyl-methyl-{1-[4-(3-piperidin-1-yl-propoxy)-benzyl]-piperidin-4-yl}-amine]
1.9	c1ccc(CCCC2CCN(Cc3ccc(OCCCN4CCCCC4)cc3)CC2)cc1 [Example 58, 1-[4-(3-Piperidin-1-yl-propoxy)-benzyl]-4-(3-phenyl-propyl)-piperidine]
1.3	c1ccc(CN2CCN(c3ccc(OCCCN4CCCC4)cc3)CC2)cc1 [Example 24, 1-Benzyl-4-[4-(3-pyrrolidin-1-yl-propoxy)-phenyl]-piperazine]
5	c1ccc(NCc2ccc(OCCCN3CCCCC3)cc2)nc1 [Example 84, [4-(3-Piperidin-1-yl-propoxy)-benzyl]-pyridin-2-yl-amine]
1	CN(CCc1ccccn1)Cc1ccc(OCCCN2CCCCC2)cc1 [Example 78, Methyl-[4-(3-piperidin-1-yl-propoxy)-benzyl]-(2-pyridin-2-yl-ethyl)-amine]
1	CN(Cc1ccccc1)Cc1ccc(OCCCN2CCCCC2)cc1 [Example 80, Benzyl-methyl-[4-(3-piperidin-1-yl-propoxy)-benzyl]-amine]
7	c1ccc(NCc2ccc(OCCCN3CCCCC3)cc2)cc1 [Example 62, Phenyl-[4-(3-piperidin-1-yl-propoxy)-benzyl]-amine]
1.6	COc1ccc(CCN(C)Cc2ccc(OCCCN3CCCCC3)cc2)cc1OC [Example 82, [2-(3,4-Dimethoxy-phenyl)-ethyl]-methyl-[4-(3-piperidin-1-yl-propoxy)-benzyl]-amine]
1.3	C(=C1CCN(Cc2ccc(OCCCN3CCCCC3)cc2)CC1)c1ccccc1 [Example 72, 1-{3-[4-(4-Benzylidene-piperidin-1-ylmethyl)-phenoxy]-propyl}-piperidine]

More lines, now with the values behind:

Structure (SMILES)	Ki [nM]
C(=C\c1ccccc1)/CN1CCN(Cc2ccc(OCCCN3CCCCC3)cc2)CC1 [Example 75, 1-(3-Phenyl-allyl)-4-[4-(3-piperidin-1-yl-propoxy)-benzyl]-piperazine]	1.6
CN(C)CCCOc1ccc(CN2CCCCC2)cc1 [Example 40, Dimethyl-[3-(4-piperidin-1-ylmethyl-phenoxy)-propyl]-amine]	5.7
CCN(CC)CCOc1ccc(CN2CCCCC2)cc1 [Example 81, Diethyl-[2-(4-piperidin-1-ylmethyl-phenoxy)-ethyl]-amine]	140
c1cc(OCCN2CCCCC2)ccc1OCCCN1CCCCC1 [Example 30, 1-{3-[4-(2-Piperidin-1-yl-ethoxy)-phenoxy]-propyl}-piperidine]	0.4
c1ccc(NCc2ccccc2OCCCN2CCCCC2)nc1 [Example 65, [2-(3-Piperidin-1-yl-propoxy)-benzyl]-pyridin-2-yl-amine]	100
c1cc(OCCCN2CCCCC2)ccc1CN1CCCCCCCCCCCC1 [Example 45, 1-[4-(3-Piperidin-1-yl-propoxy)-benzyl]-azacyclotridecane]	2.5
CN1CCN(Cc2ccc(OCCCN3CCCCC3)cc2)CC1 [Example 53, 1-Methyl-4-[4-(3-piperidin-1-yl-propoxy)-benzyl]-piperazine]	2.5
c1ccc(NCc2cccc(OCCCN3CCCCC3)c2)nc1 [Example 66, [3-(3-Piperidin-1-yl-propoxy)-benzyl]-pyridin-2-yl-amine]	8
c1cc(OCCCN2CCCCC2)ccc1CNC1CCCCC1 [Example 49, Cyclohexyl-[4-(3-piperidin-1-yl-propoxy)-benzyl]-amine]	1
c1ccc(NCc2ccc(OCCCN3CCCC3)cc2)nc1 [Example 39, Pyridin-2-yl-[4-(3-pyrrolidin-1-yl-propoxy)-benzyl]-amine]	4.5
c1cc(OCCCN2CCCCC2)ccc1CN1CCC2(CC1)OCCO2 [Example 54, 8-[4-(3-Piperidin-1-yl-propoxy)-benzyl]-1,4-dioxa-8-aza-spiro[4.5]decane]	1
c1cncc(C2CCCCN2Cc2ccc(OCCCN3CCCCC3)cc2)c1 (stereo not drawn) [Example 61, 1-[4-(3-Piperidin-1-yl-propoxy)-benzyl]-1,2,3,4,5,6-hexahydro-[2,3′]bipyridinyl]	2
C(=C1CCN(Cc2ccccc2OCCCN2CCCCC2)CC1)c1ccccc1 [Example 70, 1-{3-[2-(4-Benzylidene-piperidin-1-ylmethyl)-phenoxy]-propyl}-piperidine]	380
c1ccc2c(c1)CCN(Cc1ccc(OCCN3CCCCC3)cc1)C2 [Example 21, 2-[4-(2-Piperidin-1-yl-ethoxy)-benzyl]-1,2,3,4-tetrahydro-isoquinoline]	4
CN1CCCC1c1ccc(OCCCN2CCCCC2)cc1 (stereo not drawn) [Example 37, 1-{3-[4-(1-Methyl-pyrrolidin-2-yl)-phenoxy]-propyl}-piperidine]	0.4
c1cc(OCCCN2CCOCC2)ccc1CN1CCCCC1 [Example 51, 4-[3-(4-Piperidin-1-ylmethyl-phenoxy)-propyl]-morpholine]	4
CN1CCN(CCCOc2ccc(CN3CCCCC3)cc2)CC1 [Example 52, 1-Methyl-4-[3-(4-piperidin-1-ylmethyl-phenoxy)-propyl]-piperazine]	25
CN1CCC(N(C)Cc2ccc(OCCCN3CCCCC3)cc2)CC1 [Example 76, Methyl-(1-methyl-piperidin-4-yl)-[4-(3-piperidin-1-yl-propoxy)-benzyl]-amine]	1.1
CN(C)CCOc1ccc(OCCCN2CCCCC2)cc1 [Example 29, Dimethyl-{2-[4-(3-piperidin-1-yl-propoxy)-phenoxy]-ethyl}-amine]	2.3
c1cc(-c2ccc(OCCCN3CCCCC3)cc2)n(CCCN2CCCCC2)c1 [Example 96, 1-(3-{4-[1-(3-Piperidin-1-yl-propyl)-1H-pyrrol-2-yl]-phenoxy}-propyl)-piperidine]	1.5
c1cc(N2CCNCC2)ccc1OCCCN1CCCCC1 [Example 25, 1-[4-(3-Piperidin-1-yl-propoxy)-phenyl]-piperazine hydrochloride]	1
CC(C)N1CCN(c2ccc(OCCCN3CCCCC3)cc2)CC1 [Example 26, 1-Isopropyl-4-[4-(3-piperidin-1-yl-propoxy)-phenyl]-piperazine]	0.3

same assay, conditions: 0.8 nM [3H]-N-methylhistamine, 45 min at 25° C., SK-N-MC cell membranes; […]; read-out: Ki

Structure (SMILES)	Ki [nM]
c1ccc(CN2CCN(c3ccc(OCCCN4CCCCC4)cc3)CC2)cc1 [Example 27, 1-Benzyl-4-[4-(3-piperidin-1-yl-propoxy)-phenyl]-piperazine]	3
Brc1ccc2c(c1)CCN2C1CCN(Cc2ccc(OCCCN3CCCCC3)cc2)CC1 [Example 63, 5-Bromo-1-{1-[4-(3-piperidin-1-yl-propoxy)-benzyl]-piperidin-4-yl}-2,3-dihydro-1H-indole]	3
c1cc(N2CCNCC2)ccc1OCCCN1CCCC1 [Example 23, 1-[4-(3-Pyrrolidin-1-yl-propoxy)-phenyl]-piperazine hydrochloride]	1.3
OC1(c2ccc(Cl)cc2)CCN(Cc2ccc(OCCCN3CCCCC3)cc2)CC1 [Example 86, 4-(4-Chloro-phenyl)-1-[4-(3-piperidin-1-yl-propoxy)-benzyl]-piperidin-4-ol]	1.8
CC(C)N1CCC(O)(c2ccc(OCCCN3CCCCC3)cc2)CC1 [Example 77, 1-Isopropyl-4-[4-(3-piperidin-1-yl-propoxy)-phenyl]-piperidin-4-ol]	2.9

same assay, conditions: 0.8 nM [3H]-N-methylhistamine, 45 min at 25° C., SK-N-MC cell membranes; unit given as nm; read-out: Ki

Ki [nM]	Structure (SMILES)
4.8	c1ccc2c(c1)CCCN2Cc1ccc(OCCCN2CCCCC2)cc1 [Example 95, 1-[4-(3-Piperidin-1-yl-propoxy)-benzyl]-1,2,3,4-tetrahydro-quinoline]
